Laboratory results reported in US5492821A, “Stabilized polyacrylic saccharide protein conjugates” (Cargill, Inc., priority 1991, dated 1996).
Numbered stars: 1 amine (or outer) side, 2 acyl side, 3 side chain; on linkers, the order of the positions; unused ones are H or OH. Peptide text beside a SMILES is read from it. * marks the point of attachment. pNA = O=[N+]([O-])c1ccc(N*)cc1; Suc = O=C(CCC(=O)[*:2])[*:1]

Tests used:
Format in all cases: biochemical
Details in all cases: 0.05M sodium phosphate buffer at pH 8 containing 10% methanol
[1] = test system: CPC-trypsin (poly(2-N-methacrylamido-2-deoxy-D-glucose)-trypsin conjugate); experiment: Km and kcat of enzyme-polymer conjugate, Table 1
Procedure: A protein polymer conjugate of poly(2-N-methacrylamido-2-deoxy-D-glucose) and trypsin was prepared by the reductive amination procedure as shown below: [drawing 23] To 20 mL of a 0.05M sodium borate solution at pH 8 was added 148 mg (3×10^-8 mole) of poly(2-N-methacrylamido-2-deoxy-D-glucose) with 30 mg (1.2×10^-6 mole) of trypsin and 10 mg ([…]) of purified sodium cyanoborohydride. The solution was placed in a shaking water bath at 60 oscillations/min at 35° C. for 48 hours. The progress of the reaction was followed by gel filtration chromatography using 0.05M sodium borate as the eluent on Sephacryl S-200 with a flow rate of 1.5 mL/min. Dialysis of the solution using Spectra Por CE 100K MWCO membrane against 2×250 mL of 0.05M sodium borate at pH 8 for 14 hours gave a 42% yield of active stabilized trypsin-polymer conjugate.
(§1) The yield of the active enzyme was determined by comparison of the relative activity of the native trypsin and the trypsin-polymer conjugate for N-succinyl-Ala-Ala-Pro-Phe p-nitroanilide as the substrate in 0.05M sodium phosphate buffer at pH 8 containing 10% methanol.

α-chymotrypsin (native) = α-chymotrypsin (native) (Bos taurus, UniProt P00766); experiment: Km and kcat of enzyme, Table 1
Procedure: as §1
The procedure of EXAMPLE 8 (a) (i) was repeated in every essential detail except that α-chymotrypsin was used instead of trypsin.

trypsin (native) = experiment: Km and kcat of enzyme, Table 1
Procedure: as §1

`C[C@H](NC(=O)CCC(=O)O)C(=O)N[C@@H](C)C(=O)N1CCC[C@H]1C(=O)N[C@@H](Cc1ccccc1)C(=O)Nc1ccc([N+](=O)[O-])cc1` [N-succinyl-Ala-Ala-Pro-Phe p-nitroanilide] (Suc-AAPF-pNA) gave a Km [1] of 890 µM, a kcat [1] of 1.2 s⁻¹ and a Km (α-chymotrypsin (native)) of 40 µM. It also gave a kcat (α-chymotrypsin (native)) of 33 s⁻¹, a Km (trypsin (native)) of 760 µM and a kcat (trypsin (native)) of 0.9 s⁻¹.
